Laboratory results reported in ChEMBL document CHEMBL3886358, “Quinolyl-containing hydroxamic acid compound and preparation method thereof, and pharmaceutical composition containing this compound and use thereof” (2015).

Assays:
[1] = target: Proto-oncogene tyrosine-protein kinase receptor Ret (Homo sapiens, UniProt P07949); assay: (§1) Sci. USA 1988, 85(23), 9312). Specific steps were as follows: The compound of the present invention was dissolved in dimethyl sulfoxide (DMSO) to make a stock solution of 2 mM, then the stock solution was diluted with DMSO following a 7 half-log series to concentrations ranging from 2 uM to 600 pM.; type: cell-based
[2] = target: T1, Receptor-type tyrosine-protein kinase FLT3 (Homo sapiens, UniProt P36888); assay: as §1; type: cell-based
T1 sequence (P36888 whole entry): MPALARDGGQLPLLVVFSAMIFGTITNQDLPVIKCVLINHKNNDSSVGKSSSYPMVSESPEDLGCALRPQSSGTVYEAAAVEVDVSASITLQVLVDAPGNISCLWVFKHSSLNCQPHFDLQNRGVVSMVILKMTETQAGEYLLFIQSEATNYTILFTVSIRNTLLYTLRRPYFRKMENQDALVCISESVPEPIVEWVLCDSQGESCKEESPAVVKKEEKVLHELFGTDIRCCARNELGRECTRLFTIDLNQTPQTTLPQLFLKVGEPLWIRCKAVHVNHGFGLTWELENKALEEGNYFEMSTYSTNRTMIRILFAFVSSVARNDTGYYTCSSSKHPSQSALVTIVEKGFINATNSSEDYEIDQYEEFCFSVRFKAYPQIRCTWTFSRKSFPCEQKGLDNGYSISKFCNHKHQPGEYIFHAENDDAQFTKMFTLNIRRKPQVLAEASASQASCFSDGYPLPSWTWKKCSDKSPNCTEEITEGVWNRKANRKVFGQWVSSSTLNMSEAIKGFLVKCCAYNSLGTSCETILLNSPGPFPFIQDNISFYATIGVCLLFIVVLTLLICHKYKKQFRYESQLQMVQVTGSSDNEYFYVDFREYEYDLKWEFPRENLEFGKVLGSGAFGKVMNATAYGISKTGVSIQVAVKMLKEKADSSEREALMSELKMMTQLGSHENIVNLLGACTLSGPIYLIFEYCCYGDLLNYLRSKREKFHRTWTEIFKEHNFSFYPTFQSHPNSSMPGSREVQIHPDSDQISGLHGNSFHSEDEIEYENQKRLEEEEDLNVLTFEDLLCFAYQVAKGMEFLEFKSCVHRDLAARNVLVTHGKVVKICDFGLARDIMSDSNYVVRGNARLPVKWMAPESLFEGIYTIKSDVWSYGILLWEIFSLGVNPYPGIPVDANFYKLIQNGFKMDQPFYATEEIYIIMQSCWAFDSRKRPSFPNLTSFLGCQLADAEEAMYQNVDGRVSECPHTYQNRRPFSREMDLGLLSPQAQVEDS

Proto-oncogene tyrosine-protein kinase receptor Ret, sequence (P07949 whole entry): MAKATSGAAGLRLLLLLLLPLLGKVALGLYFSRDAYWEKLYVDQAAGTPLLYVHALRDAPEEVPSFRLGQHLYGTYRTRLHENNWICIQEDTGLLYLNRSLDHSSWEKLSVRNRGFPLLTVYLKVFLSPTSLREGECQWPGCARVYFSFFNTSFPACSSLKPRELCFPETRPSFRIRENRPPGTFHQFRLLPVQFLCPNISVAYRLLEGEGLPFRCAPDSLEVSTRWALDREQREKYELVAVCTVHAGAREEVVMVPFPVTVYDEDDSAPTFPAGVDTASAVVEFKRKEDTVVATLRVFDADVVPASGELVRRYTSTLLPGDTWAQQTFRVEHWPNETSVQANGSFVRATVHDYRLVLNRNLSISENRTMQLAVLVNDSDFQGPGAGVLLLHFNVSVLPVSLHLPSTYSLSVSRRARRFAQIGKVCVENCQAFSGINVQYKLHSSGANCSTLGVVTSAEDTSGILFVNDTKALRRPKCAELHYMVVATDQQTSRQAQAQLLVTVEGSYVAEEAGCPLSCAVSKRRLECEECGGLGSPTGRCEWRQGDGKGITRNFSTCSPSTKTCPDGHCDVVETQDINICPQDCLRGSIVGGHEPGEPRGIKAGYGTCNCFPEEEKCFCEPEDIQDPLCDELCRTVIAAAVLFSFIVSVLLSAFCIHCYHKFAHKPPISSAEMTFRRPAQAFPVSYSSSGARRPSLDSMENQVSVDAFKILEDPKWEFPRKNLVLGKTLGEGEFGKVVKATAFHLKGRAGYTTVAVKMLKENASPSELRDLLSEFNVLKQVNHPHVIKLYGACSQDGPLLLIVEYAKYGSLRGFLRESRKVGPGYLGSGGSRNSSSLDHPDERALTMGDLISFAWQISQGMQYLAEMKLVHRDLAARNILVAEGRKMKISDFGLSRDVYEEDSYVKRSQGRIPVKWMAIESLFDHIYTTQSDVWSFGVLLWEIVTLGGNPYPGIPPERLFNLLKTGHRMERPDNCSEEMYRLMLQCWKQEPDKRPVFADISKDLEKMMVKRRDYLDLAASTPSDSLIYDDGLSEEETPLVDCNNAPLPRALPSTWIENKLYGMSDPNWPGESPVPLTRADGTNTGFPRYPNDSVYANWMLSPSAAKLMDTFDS

**Q.** Which results are given for `COc1cc2c(Oc3ccc(NC(=O)C4(C(=O)Nc5ccc(F)cc5)CC4)cc3F)ccnc2cc1OCCCC(=O)NO`?
**A.** IC50 [1]: 154 nM; IC50 [2]: 31 nM
